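96-well plates; 48 h exposure; 5 concentrations. Endpoints by linear interpolation between flanking doses. Not reached: highest tested concentration assigned. Here, GI50 denotes the concentration required for 50% inhibition of growth.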 Calls of active or inactive are those of the source. No stated cut-off is given here; in the data, active = GI50 up to about 1.1 µM and inactive = higher.
Tests used:
Experiment in all cases: NCI anticancer screen, dose series, 48 h
[1] = tested on: RPMI-8226
[2] = tested on: NCI-H460
[3] = tested on: SK-MEL-5
[4] = tested on: NCI-H522
[5] = tested on: UACC-62
[6] = tested on: HCT-15
[7] = tested on: U-251
[8] = tested on: RXF 393
[9] = tested on: HOP-92
[10] = tested on: A498
[11] = tested on: CAKI-1
[12] = tested on: NCI-H23
[13] = tested on: LOX IMVI
[14] = tested on: M14
[15] = tested on: EKVX
[16] = tested on: KM12
[17] = tested on: OVCAR-8
[18] = tested on: OVCAR-3

For `C[N+](C)(C)CC(=O)N/N=C(/C=C/c1ccccc1)CC1OC(=O)c2ccccc21` (centres undefined), the GI50 [1] was > 100 µM (inactive), the GI50 [2] was > 100 µM (inactive) and the GI50 [3] was > 100 µM (inactive). For the same compound, the GI50 [4] was > 100 µM (inactive), the GI50 [5] was > 100 µM (inactive) and the GI50 [6] was greater than 100 µM. The GI50 [7] was > 100 µM (inactive), the GI50 [8] was > 100 µM (inactive) and the GI50 [9] was > 10 µM (inactive). For the same compound, the GI50 [10] was > 100 µM (inactive), the GI50 [11] was > 100 µM (inactive) and the GI50 [12] was > 10 µM (inactive). For the same compound, the GI50 [13] was > 10 µM (inactive), the GI50 [14] was > 100 µM (inactive) and the GI50 [15] was > 100 µM (inactive). The GI50 [16] was > 100 µM (inactive) and the GI50 [17] was > 100 µM (inactive).
With `O=c1[nH]cc(F)c(=O)n1C1OC(CO)C(O)C1O` (centres undefined) the GI50 [1] was > 100 µM (inactive), the GI50 [2] was > 100 µM (inactive) and the GI50 [3] was > 100 µM (inactive). For the same compound, the GI50 [4] was > 100 µM (inactive), the GI50 [6] was greater than 100 µM and the GI50 [7] was > 100 µM (inactive). The GI50 [8] was > 100 µM (inactive), the GI50 [9] was > 100 µM (inactive) and the GI50 [11] was > 100 µM (inactive). For the same compound, the GI50 [12] was > 100 µM (inactive), the GI50 [13] was > 100 µM (inactive) and the GI50 [14] was > 100 µM (inactive). For the same compound, the GI50 [15] was > 100 µM (inactive), the GI50 [16] was > 100 µM (inactive) and the GI50 [18] was > 100 µM (inactive). For the same compound, the GI50 [17] was > 100 µM (inactive).
`CCOc1ccc2c(c1)[n+]([O-])c(C(N)=O)c(N)[n+]2[O-]` was tested, and the GI50 [2] was > 100 µM (inactive), the GI50 [3] was > 100 µM (inactive) and the GI50 [4] was > 100 µM (inactive). The GI50 [7] was > 100 µM (inactive), the GI50 [8] was > 100 µM (inactive) and the GI50 [9] was > 100 µM (inactive). The GI50 [10] was > 100 µM (inactive), the GI50 [11] was > 100 µM (inactive) and the GI50 [12] was > 100 µM (inactive). For the same compound, the GI50 [14] was > 100 µM (inactive), the GI50 [15] was > 100 µM (inactive) and the GI50 [16] was > 100 µM (inactive). For the same compound, the GI50 [18] was > 100 µM (inactive) and the GI50 [17] was > 100 µM (inactive).
With `O=C(O)/C(Cl)=C(\Cl)Nc1cccc(C(F)(F)F)c1` the GI50 [2] was > 100 µM (inactive), the GI50 [5] was > 100 µM (inactive) and the GI50 [6] was greater than 100 µM. For the same compound, the GI50 [7] was > 100 µM (inactive), the GI50 [8] was > 100 µM (inactive) and the GI50 [9] was 9.2 µM (inactive). For the same compound, the GI50 [11] was > 100 µM (inactive), the GI50 [12] was > 100 µM (inactive) and the GI50 [13] was > 100 µM (inactive). The GI50 [14] was 18 µM (inactive), the GI50 [15] was > 100 µM (inactive) and the GI50 [18] was > 100 µM (inactive). For the same compound, the GI50 [17] was > 100 µM (inactive).
In the case of `COc1ccc(/C=c2/sc3n(c2=O)C(c2ccccc2)C2(O)CCCCC2N=3)cc1` (centres undefined), the GI50 [1] is reported as > 12.5 µM (inactive), the GI50 [2] is reported as > 12.5 µM (inactive) and the GI50 [3] is reported as > 12.5 µM (inactive). For the same compound, the GI50 [4] was > 12.5 µM (inactive), the GI50 [5] was > 12.5 µM (inactive) and the GI50 [7] was > 12.5 µM (inactive). For the same compound, the GI50 [11] was > 12.5 µM (inactive), the GI50 [12] was > 12.5 µM (inactive) and the GI50 [13] was > 12.5 µM (inactive). The GI50 [14] was > 12.5 µM (inactive), the GI50 [18] was > 12.5 µM (inactive) and the GI50 [17] was > 12.5 µM (inactive).
For `COC(=O)C(C(=O)C(=O)Nc1ccc(C(F)(F)F)cc1[N+](=O)[O-])c1csc(-n2nc(-c3ccccc3)cc2-c2ccccc2)n1` (centres undefined), the GI50 [1] was > 100 µM (inactive), the GI50 [2] was > 100 µM (inactive) and the GI50 [4] was > 100 µM (inactive). For the same compound, the GI50 [5] was > 100 µM (inactive), the GI50 [6] was greater than 100 µM and the GI50 [7] was > 100 µM (inactive). For the same compound, the GI50 [8] was > 100 µM (inactive), the GI50 [10] was > 100 µM (inactive) and the GI50 [11] was > 100 µM (inactive). The GI50 [12] was > 100 µM (inactive), the GI50 [13] was > 100 µM (inactive) and the GI50 [14] was > 100 µM (inactive). For the same compound, the GI50 [16] was > 100 µM (inactive), the GI50 [18] was > 100 µM (inactive) and the GI50 [17] was > 100 µM (inactive).
In the case of `CCCC(S(=O)(=O)c1ccccc1)S(=O)(=O)c1ccccc1`, the GI50 [1] is reported as > 100 µM (inactive), the GI50 [2] is reported as > 100 µM (inactive) and the GI50 [3] is reported as > 100 µM (inactive). The GI50 [5] was > 100 µM (inactive), the GI50 [6] was greater than 100 µM and the GI50 [7] was > 100 µM (inactive). The GI50 [8] was > 100 µM (inactive), the GI50 [10] was > 100 µM (inactive) and the GI50 [11] was > 100 µM (inactive). The GI50 [12] was > 100 µM (inactive), the GI50 [14] was > 100 µM (inactive) and the GI50 [15] was > 100 µM (inactive). The GI50 [16] was > 100 µM (inactive), the GI50 [18] was > 100 µM (inactive) and the GI50 [17] was > 100 µM (inactive).
In the case of `C[C@@H]1OC(=O)N2CCCC(=C3SCCCS3)C12` (some centres undefined), the GI50 [1] is reported as 36.9 µM (inactive), the GI50 [2] is reported as > 100 µM (inactive) and the GI50 [4] is reported as 59.2 µM (inactive). The GI50 [5] was 56.1 µM (inactive), the GI50 [6] was greater than 100 µM and the GI50 [7] was > 100 µM (inactive). The GI50 [8] was 68.4 µM (inactive), the GI50 [9] was 29.6 µM (inactive) and the GI50 [10] was > 100 µM (inactive). For the same compound, the GI50 [12] was 64 µM (inactive), the GI50 [13] was 94 µM (inactive) and the GI50 [14] was 48.9 µM (inactive). The GI50 [15] was > 100 µM (inactive), the GI50 [16] was 60.3 µM (inactive) and the GI50 [18] was > 100 µM (inactive). The GI50 [17] was 57.9 µM (inactive).
For `Nc1nc2c(ncn2CCCC(c2ccccc2)P(=O)(O)O)c(=O)[nH]1` (centres undefined), the GI50 [1] was > 100 µM (inactive), the GI50 [2] was > 100 µM (inactive) and the GI50 [3] was > 100 µM (inactive). For the same compound, the GI50 [4] was > 100 µM (inactive), the GI50 [5] was > 100 µM (inactive) and the GI50 [6] was greater than 100 µM. For the same compound, the GI50 [7] was > 100 µM (inactive), the GI50 [9] was 91.8 µM (inactive) and the GI50 [11] was > 100 µM (inactive). The GI50 [12] was > 100 µM (inactive), the GI50 [13] was > 100 µM (inactive) and the GI50 [14] was > 100 µM (inactive). For the same compound, the GI50 [15] was > 100 µM (inactive), the GI50 [16] was > 100 µM (inactive) and the GI50 [18] was > 100 µM (inactive). For the same compound, the GI50 [17] was > 100 µM (inactive).

From ChEMBL document CHEMBL1201862, “PubChem BioAssay data set” (2004)
